Test results: PubChem BioAssay (NCI)
Where “and” joins values, the source holds several entries; their conditions need not be identical. Equal entries are not always repeated.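 A five-concentration, 48-hour dose response in 96-well plates underlies each endpoint, interpolated linearly between surrounding concentrations. The concentration for 50% growth inhibition is given as GI50. At the TGI there is no net growth.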

What was measured:
Assay in all cases: growth of human tumour cells (NCI), 48 h
SNB-19 CNS = system: SNB-19 CNS
A498 renal = system: A498 renal
SNB-75 CNS = system: SNB-75 CNS
ACHN renal = system: ACHN renal
SK-MEL-5 melanoma = system: SK-MEL-5 melanoma
T-47D breast = system: T-47D breast
SN12C renal = system: SN12C renal
RXF 393 renal = system: RXF 393 renal
EKVX NSCLC = system: EKVX NSCLC
HCT-116 colon = system: HCT-116 colon

Structure (SMILES)	GI50 (SNB-19 CNS)	TGI (SNB-19 CNS)	GI50 (A498 renal) [µM]	TGI (A498 renal)	GI50 (SNB-75 CNS) [µM]	TGI (SNB-75 CNS)	GI50 (ACHN renal)	TGI (ACHN renal)	GI50 (SK-MEL-5 melanoma) [µM]	TGI (SK-MEL-5 melanoma)	GI50 (T-47D breast) [µM]	TGI (T-47D breast)	GI50 (SN12C renal) [µM]	TGI (SN12C renal)	GI50 (RXF 393 renal) [µM]	TGI (RXF 393 renal)	GI50 (EKVX NSCLC) [µM]	TGI (EKVX NSCLC)	GI50 (HCT-116 colon)	TGI (HCT-116 colon)
CCCN1CCCC(c2ccc(Nc3nc(Nc4cc(F)ccc4C(N)=O)c4cc[nH]c4n3)c(OC)c2)C1 (centres undefined)	3.19 µM	6.45 µM	0.779	4.34 µM	3.14	6.43 µM	2.92 µM	6.23 µM	3.03	6.24 µM	3.55	7.62 µM	3.19	6.71 µM	0.942	4.48 µM	0.862	5.19 µM	0.21 µM	4.38 µM
CC(C)CC(=O)O[C@H]1C(=O)O[C@@H]2C[C@H]3[C@H](C)C(=O)C(O[C@@H]4O[C@H](CO)[C@@H](O)[C@H](O)[C@H]4O)=C[C@]3(C)[C@H]3[C@@H](O)[C@H](O)[C@]4(C(=O)O)OC[C@]32[C@@H]14	31.9 µM	> 100 µM	> 100	> 100 µM	–	> 100 µM	> 100 µM	> 100 µM	28.4	> 100 µM	–	> 100 µM	> 100	> 100 µM	10.8	38.7 µM	> 100	> 100 µM	32.8 µM	> 100 µM
CN1CC[C@H](N(C)C(=O)N2CC(c3cc(F)ccc3F)=C[C@@]2(CO)c2ccccc2)[C@H](F)C1	0.0259 µM	> 100 µM	0.0211	24.8 µM	0.0402	34.9 µM	0.0373 µM and 0.0195 µM	> 100 µM	0.00471	14.1 µM	0.0635	> 100 µM	0.0631	> 100 µM	0.0052	5.13 µM	–	> 100 µM	0.00335 µM	> 100 µM
CCn1nc(C#Cc2c(C)ccc3c(Nc4ccc(Cl)cc4)nccc23)c2c(N)ncnc21	4.93 µM	> 100 µM	2.54	8.65 µM	3.12	44 µM	5.31 µM	> 100 µM	2.14	6.55 µM	5.48	> 100 µM	3.84	> 100 µM	2.63	8.98 µM	7.4	> 100 µM	2.11 µM	> 100 µM
O=C(/C=C/c1ccccc1)c1ccccn1	15.1 µM and 31.9 µM	31 µM and > 100 µM	–	29.6 µM and 37.6 µM	–	37.5 µM and 92.7 µM	–	28.9 µM and 31 µM	–	28.5 µM and 88.6 µM	–	31.2 µM and 62.7 µM	–	27.3 µM and 31.8 µM	–	37.4 µM and 36.5 µM	–	45.5 µM and 41 µM	6.9 µM and 15.4 µM	19.4 µM and 30.3 µM
COc1cccc(-c2cc(-c3ccc(Nc4nc(Nc5ccc(Cl)cc5)nc(Nc5ccc(Cl)cc5)n4)cc3)nc(N)c2C#N)c1	10.3 µM	> 39.3 µM	4.7	29.4 µM	9.75	24.6 µM	1.98 µM	4.5 µM	2.03	6.35 µM	1.34	3.67 µM	4.01	> 100 µM	1.44	3.68 µM	4.79	16.3 µM	1.6 µM	3.53 µM
C=C(CN1CCc2ccccc2C1)c1ccc(C(=O)Nc2cccc(N)c2)cc1	35.9 µM	> 100 µM	20.5	45.5 µM	15.6	43 µM	28.8 µM	87.1 µM	13.6	28.3 µM	27.3	> 100 µM	18.8	36.5 µM	19.1	43.7 µM	9.48	56.2 µM	16 µM	33.5 µM
N#CCC1CCN(c2nc(Nc3ccc(N4CCC(O)CC4)cc3)c3c(=O)[nH]ncc3n2)CC1	5.02 µM	> 100 µM	0.342	1.74 µM	0.337	2.43 µM	0.473 µM	> 100 µM	> 100	> 100 µM	2.05	> 100 µM	0.391	> 100 µM	0.303	1.3 µM	1.85	> 100 µM	0.345 µM	> 100 µM
COc1cc(C(=O)N[C@@H]2CCCN(C)C2)ccc1Nc1ncc2c(n1)N(C1CCCC1)CC(C)(C)C(=O)N2C	0.23 µM	20.4 µM	0.0715	0.774 µM	0.134	4.74 µM	1.55 µM	19.4 µM	0.123	1.56 µM	1.12	17.8 µM	0.347	16.6 µM	0.0427	8.99 µM	1.11	24 µM	0.0509 µM	5.21 µM
CCOc1ccc(-c2nc3ccc(-c4nc5ccc(N6CCN(C)CC6)cc5[nH]4)cc3[nH]2)cc1OCC	2 µM	11.1 µM	1.51	4.58 µM	1.03	2.56 µM	3.48 µM	13.9 µM	1.29	3.71 µM	0.946	5.57 µM	1.94	10.9 µM	1.14	2.49 µM	5.06	> 100 µM	0.529 µM	2.72 µM
C=C(C)[C@@H]1CC[C@]2(C(=O)OC)CC[C@]3(C)[C@H](CC[C@@H]4[C@@]5(C)CC/C(=N\OCCC(=NCCC#N)NOCCC#N)C(C)(C)[C@@H]5CC[C@]43C)[C@@H]12	12.6 µM	> 50 µM	21.7	> 50 µM	31.2	> 50 µM	10.5 µM	> 50 µM	3.02	10 µM	3.47	> 50 µM	7.28	14.7 µM	5.64	16.6 µM	4.77	> 50 µM	2.89 µM	> 50 µM
OC1(c2ccccc2)c2ccccc2N(c2ccccc2)c2ccc(Cl)cc21 (centres undefined)	0.378 µM	1.45 µM	0.198	0.765 µM	0.293	1.11 µM	0.367 µM	1.37 µM	0.186	0.432 µM	0.103	0.282 µM	0.224	0.712 µM	0.185	0.472 µM	0.286	1.25 µM	0.234 µM	0.602 µM
CC(C)c1c(C(=O)Nc2ccccc2)c(-c2ccccc2)c(-c2ccc(F)cc2)n1CC[C@@H](O)C[C@@H](O)CC(=O)O	10.5 µM	> 100 µM	0.516	4.52 µM	2.09	> 26.5 µM	6.67 µM	> 91.2 µM	9.95	25.4 µM	32.1	> 100 µM	7.56	> 100 µM	8.75	47.2 µM	49.4	> 100 µM	10.1 µM	> 100 µM
CN(C)c1ccc(-c2cc(-c3cccc(NS(C)(=O)=O)c3)nc(N)c2C#N)cc1	0.0526 µM	> 48.9 µM	0.054	38.8 µM	0.0272	3.22 µM	0.067 µM	23.3 µM	0.0414	0.997 µM	0.951	35.9 µM	0.0537	20.7 µM	0.0183	0.0565 µM	0.133	> 63.8 µM	0.0404 µM	2.19 µM
